Substitutions are numbered along the chain they refer to. Entries after “also recorded” stand apart in the source; their conditions may differ.
Tests used:
wild type rat CCK1R = target: T1, wild type rat CCK1R (Rattus norvegicus, UniProt P30551); assay: Competition binding with 125I-BDZ-1, receptor expressed in COS cells
T1 sequence (P30551 1-444): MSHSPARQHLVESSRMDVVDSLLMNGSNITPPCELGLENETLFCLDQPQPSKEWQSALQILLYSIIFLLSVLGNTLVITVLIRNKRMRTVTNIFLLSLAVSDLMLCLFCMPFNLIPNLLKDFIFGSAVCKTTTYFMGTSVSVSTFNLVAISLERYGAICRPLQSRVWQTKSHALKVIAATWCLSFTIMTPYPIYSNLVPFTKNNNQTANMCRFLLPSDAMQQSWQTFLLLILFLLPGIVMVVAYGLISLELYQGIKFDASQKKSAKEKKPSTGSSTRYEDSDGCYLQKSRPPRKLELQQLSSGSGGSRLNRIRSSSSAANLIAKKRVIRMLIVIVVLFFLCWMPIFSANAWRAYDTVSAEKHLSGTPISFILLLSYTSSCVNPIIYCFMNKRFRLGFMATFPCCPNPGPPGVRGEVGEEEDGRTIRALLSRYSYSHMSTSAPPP

CCK1R WT [1] = target: T2, CCK1R WT (Homo sapiens, UniProt P32238); assay: Competition binding with 125I-BDZ-1, CHO membranes; conditions: for α (cooperativity constant): 125I-BDZ-1 radioligand, allosteric ternary complex model
T2 sequence (P32238 1-428): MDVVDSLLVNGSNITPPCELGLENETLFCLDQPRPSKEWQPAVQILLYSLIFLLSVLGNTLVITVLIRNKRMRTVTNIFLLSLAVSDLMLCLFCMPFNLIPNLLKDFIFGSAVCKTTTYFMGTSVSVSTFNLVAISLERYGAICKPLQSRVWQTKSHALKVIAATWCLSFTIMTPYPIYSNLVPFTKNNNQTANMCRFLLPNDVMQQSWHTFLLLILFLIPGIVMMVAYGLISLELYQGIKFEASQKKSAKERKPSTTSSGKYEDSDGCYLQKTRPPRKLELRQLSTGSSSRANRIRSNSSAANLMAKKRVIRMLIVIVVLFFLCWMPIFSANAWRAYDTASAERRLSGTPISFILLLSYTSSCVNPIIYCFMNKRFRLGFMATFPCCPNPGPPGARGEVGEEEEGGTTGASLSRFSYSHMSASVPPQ

rCCK1R-Ala317,321,325 = target: T3, rCCK1R-Ala317,321,325 (Rattus norvegicus, UniProt P30551, I332A/L340A/V336A); type: binding; conditions: non-dimerizing rat mutant
T3 sequence (P30551 1-444 I332A/V336A/L340A): T1 sequence (P30551 1-444) with I332A, V336A, L340A

CCK2R WT [2] = target: T4, CCK2R WT (Homo sapiens, UniProt P32239); assay: Competition binding with 125I-BDZ-2, CHO membranes; conditions: 125I-BDZ-2 radioligand; allosteric ternary complex model
T4 sequence (P32239 1-447): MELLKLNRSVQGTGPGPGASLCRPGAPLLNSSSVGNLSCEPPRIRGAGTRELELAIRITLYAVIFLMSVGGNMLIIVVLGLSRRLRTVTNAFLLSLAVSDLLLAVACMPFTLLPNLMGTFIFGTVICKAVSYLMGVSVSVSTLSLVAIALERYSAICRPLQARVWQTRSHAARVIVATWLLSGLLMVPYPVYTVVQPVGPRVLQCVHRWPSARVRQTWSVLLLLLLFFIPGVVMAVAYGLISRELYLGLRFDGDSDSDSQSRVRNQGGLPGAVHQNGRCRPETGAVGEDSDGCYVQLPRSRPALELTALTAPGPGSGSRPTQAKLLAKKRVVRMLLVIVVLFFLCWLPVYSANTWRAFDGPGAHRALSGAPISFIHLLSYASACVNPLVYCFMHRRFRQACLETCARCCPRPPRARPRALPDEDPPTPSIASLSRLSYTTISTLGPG

CCK2R WT [3] = target: T4, CCK2R WT; assay: Intracellular calcium response, CHO-CCK2R cells; type: cell-based
CCK1R WT [4] = target: T2, CCK1R WT; conditions: compared with CCK at the CCK1R
CCK2R WT [5] = target: T4, CCK2R WT; assay: Competition binding with 125I-CCK, CHO membranes; conditions: for α (cooperativity constant): 125I-CCK radioligand, allosteric ternary complex model; for inhibition of saturable 125I-CCK binding: maximal inhibition at CCK2R
CCK1R WT [6] = target: T2, CCK1R WT; assay: Competition binding with 125I-CCK, CHO membranes; conditions: 125I-CCK radioligand; allosteric ternary complex model

| SMILES | pKi, BDZ-1 binding affinity (wild type rat CCK1R) | pKi, BDZ-1 binding affinity (CCK1R WT [1]; wild type human CCK1R) | pKi, BDZ-1 binding affinity (rCCK1R-Ala317,321,325) | α (cooperativity constant) (CCK2R WT [2]) | biological (agonist) response at the CCK2R (CCK2R WT [3]) | maximal intracellular calcium response (CCK1R WT [4]) | α (cooperativity constant) (CCK2R WT [5]) | inhibition of saturable 125I-CCK binding (CCK2R WT [5]) | α (cooperativity constant) (CCK1R WT [1]) | α (cooperativity constant) (CCK1R WT [6]) |
| --- | --- | --- | --- | --- | --- | --- | --- | --- | --- | --- |
| CN1C(=O)[C@@H](NC(=O)Nc2cccc(I)c2)N=C(c2ccccc2)c2ccccc21 [BDZ-1, (S)-1-(3-iodophenyl)-3-(1-methyl-2-oxo-5-phenyl-2,3-dihydro-1H-enzo[e][1,4]diazepin-3-yl)urea] | 9.55 ± 0.25 | 8.38 ± 0.16 | 9.66 ± 0.09 |  |  |  |  |  |  |  |
| CC(C)N(Cc1ccccc1)C(=O)CN1C(=O)[C@@H](Cc2c[nH]c3ccccc23)c2nnc(-c3ccccc3)n2-c2ccccc21 [CE-326597, N-benzyl-2-[(4S)-4-(1H-indol-3-ylmethyl)-5-oxo-1-phenyl-4,5-dihydro-6H-[1,2,4]triazolo[4,3-a][1,5]benzodiazepin-6-yl]-N-isopropylacetamide] |  |  |  | 0.47 ± 0.06 | weak partial agonist; also recorded: very weak partial agonist | not statistically different from those elicited by CCK | 0.32 ± 0.01 | approximately 60% | 0.54 ± 0.06 | ~0.00 |
| Cc1cc(C)cc(C[C@H]2CCCCN2C(=O)CN2C(=O)[C@@H](Cc3n[nH]c4ccccc34)c3nnc(-c4ccccc4)n3-c3ccccc32)c1 [PF-04756956, (4S)-6-{2-[(2R)-2-(3,5-dimethylbenzyl)piperidin-1-yl]-2-oxoethyl}-4-(1H-indazol-3-ylmethyl)-1-phenyl-4H-[1,2,4]triazolo[4,3-a][1,5]benzodiazepin-5(6H)-one] |  |  |  | 0.60 ± 0.04 | no agonist activity at all; also recorded: no biological response | not statistically different from those elicited by CCK | 0.32 ± 0.07 | approximately 60% | 0.65 ± 0.08 | ~0.0 |

Source: paper PMC4790425 (Journal of medicinal chemistry, 2015)
